Data: patent US20260327211A1, “MODULATORS OF A POTASSIUM CHANNEL AND OF TRPV1 CHANNEL AND USES THEREOF” (Bsense Bio Therapeutics Ltd., priority 2023, published 2026)
Values joined by “and” are separate entries in the source; they are usually repeats but may differ in a detail not shown here. Equal values may be shown once. Read-outs that look alike come from different tables or passages of the source.

How the values were obtained:
[1] = Log D, 1-octanol/buffer shake flask; type: physicochemical; details: pH 7.4
Outline: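 Compound from a 10 mM DMSO stock was partitioned between mutually saturated 1-octanol and 0.1 M phosphate buffer by shaking for 1 h at room temperature, then centrifuged. Each phase was diluted and quantified by LC/MS/MS. Log D came from the ratio of dilution- and internal-standard-corrected peak areas.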

[2] = Plasma protein binding, rat; type: in vitro ADME; details: read-out: PPB fu (rat)
Description: Incubation: Test compounds or the positive control warfarin were introduced into 10% plasma samples (Sourced from WuXi DMPK labs or from commercial vendors) to a concentration of 2 μM. A portion of 150 μL of the compound-containing plasma sample was added to one chamber of a 96-well equilibrium HTD dialysis plate. An equal volume of dialysis buffer was added to the corresponding chamber. A plasma sample was also taken before the incubation and designated as the T0 sample, serving for recovery calculation. The plate was incubated in a humidified 5% CO2 incubator at 37° C. for 4 hours. Each incubation was set up in triplicate.
Sample extraction and preparation: Following the incubation period, samples of 50 μL were drawn from both the plasma side and the buffer side and each was mixed with an equal volume of blank plasma. All matrix-matched samples were quenched using a stop solution containing an internal standard (IS).
Sample Analysis: The samples were subsequently analyzed by LC-MS/MS. The concentrations of the test compound in plasma and buffer samples were quantified based on the peak area ratio of analyte to the internal standard, with no requirement for a standard curve.

rat DRG neurons = experiment: Rat DRG neurons, capsaicin-evoked action potential firing; type: cell-based; details: for IC50: capsaicin 1 μM, read-out: Rat DRGs, CAP IC50
Source text: rDRGs isolation and primary cell culture: Briefly, rat DRGs from all spinal levels were carefully removed and collected in HBSS on ices, connective tissue of the epineurium surrounding the ganglion was removed and cells were dissociated using Collagenase-II and trypsin dissociation solutions. DRGs were dissociated further, passed through glass Pasteur pipettes to obtain single cells. Then dissociation solution was changed to 5% FBS containing DRG neuronal culture medium and plated onto ECL coated 12 mm cover glass.
Additional rDRGs experiments were performed using Lonza primary neonatal rat (Sprague Dawley neonatal; P2,3) DRG neurons (R-DRG-505, Lonza) plated and cultured according to the manufacturer.
Electrophysiology: Cells were used for electrophysiological recording at least 48 hours following rDRG isolation or at least 5 days following cryopreserved rDRG thawing. Round small neurons (20-40 μm in diameter) were selected for electrophysiology recordings, to select for small nociceptive neurons that propagate pain sensation in vivo and that are expressing both Kv7.2/3 and TRPV1 targets. Membrane excitability was monitored using current clamp configuration of the whole-cell patch-clamp technique. Positive current steps of different amplitude were injected (400 ms) to induce spikes trains before and following compound application.
To assess the potency of compounds using DRG neurons, the inhibitory potency for CAP-evoked action potential (AP) trains was measured. For this purpose, DRG membrane potential was continuously measured, and the following protocol was performed:
Cells were perfused with vehicle containing bath solution. After 30 seconds, CAP (1 μM) was applied for 6 seconds to activate TRPV1 and stimulate AP trains.
After 30 seconds of perfusion with bath solution containing only vehicle, perfusion was changed to a bath solution containing compound, and after 3 minutes of compound application, CAP (1 μM) was applied again for 6 seconds to activate TRPV1 and stimulate AP trains.
Cells perfusion was changed back to bath solution containing only vehicle and after 3 minutes of compound washout, CAP (1 μM) was applied again for 6 seconds to activate TRPV1 and stimulate AP trains.
To evaluate the drug/control response, the number of AP spikes induced by CAP following incubation with test compound was divided by the average number of control AP spikes induced without compound, before compound incubation, and following its washout.

hERG = hERG (Homo sapiens, UniProt Q12809); experiment: hERG HCS, FLIPR potassium assay, CHO/hERG; type: cell-based; parameters: host or cells: CHO; details: for hERG IC50 (inhibition in parentheses): at highest concentration shown
Sequence of hERG (Q12809 whole entry): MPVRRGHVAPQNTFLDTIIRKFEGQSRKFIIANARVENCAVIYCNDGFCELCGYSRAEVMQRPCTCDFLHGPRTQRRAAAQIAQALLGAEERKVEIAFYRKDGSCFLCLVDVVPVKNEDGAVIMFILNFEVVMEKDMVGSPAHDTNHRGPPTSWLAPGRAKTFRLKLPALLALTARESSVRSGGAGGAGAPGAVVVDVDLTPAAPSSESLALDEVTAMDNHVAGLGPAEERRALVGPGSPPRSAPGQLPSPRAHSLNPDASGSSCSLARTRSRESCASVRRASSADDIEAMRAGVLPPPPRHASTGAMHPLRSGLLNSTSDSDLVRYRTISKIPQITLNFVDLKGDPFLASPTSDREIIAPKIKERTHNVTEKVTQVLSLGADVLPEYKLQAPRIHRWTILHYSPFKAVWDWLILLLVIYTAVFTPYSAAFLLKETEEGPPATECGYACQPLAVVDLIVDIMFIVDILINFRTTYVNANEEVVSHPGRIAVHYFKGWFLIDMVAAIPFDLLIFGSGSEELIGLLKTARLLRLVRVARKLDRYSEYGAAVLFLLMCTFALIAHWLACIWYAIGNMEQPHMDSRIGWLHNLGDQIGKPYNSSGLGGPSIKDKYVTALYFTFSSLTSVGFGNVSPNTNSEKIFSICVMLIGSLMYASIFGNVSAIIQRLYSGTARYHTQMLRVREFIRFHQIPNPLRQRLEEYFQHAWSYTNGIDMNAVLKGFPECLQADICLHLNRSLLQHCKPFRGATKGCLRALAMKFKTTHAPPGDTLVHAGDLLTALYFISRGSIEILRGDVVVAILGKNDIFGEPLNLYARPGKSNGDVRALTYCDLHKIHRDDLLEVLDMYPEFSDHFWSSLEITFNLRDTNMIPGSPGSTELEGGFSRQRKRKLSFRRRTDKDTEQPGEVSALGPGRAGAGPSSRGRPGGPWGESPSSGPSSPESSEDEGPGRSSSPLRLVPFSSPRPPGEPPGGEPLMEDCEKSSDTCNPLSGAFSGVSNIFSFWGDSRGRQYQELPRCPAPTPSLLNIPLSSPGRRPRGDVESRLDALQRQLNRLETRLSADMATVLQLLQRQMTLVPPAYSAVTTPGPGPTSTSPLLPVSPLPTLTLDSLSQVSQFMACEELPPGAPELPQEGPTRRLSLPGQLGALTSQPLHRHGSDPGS
Description: Cell culture: Chinese hamster ovary (CHO) cell-line cells with a constitutive expression of human hERG channels (B'SYS GmbH, Switzerland) were cultured in F-12 nutrient mixture (Biological Industries) supplemented with 10% fetal bovine serum (Biological Industries) and 1% penicillin-streptomycin (Biological Industries) in a humidified 5% CO2 incubator at 37° C. To maintain the hERG expression stability of the CHO cell line, antibiotics selection (G418 […] and Hygromycin 500) was applied.
FLIPR Potassium Assay Kit: The FLIPR Potassium Assay Kit (R8222 FLIPR Potassium Assay Explorer Kits, Molecular Devices) was used with CHO/hERG cell line, for screening compounds against the hERG ion-channel off-target, as detailed hereinabove.
According to optimization process, to achieve a uniform and consistent screening condition of molecules, the following protocol was established: Cells were seeded in 384-well, black-walled, clear-bottomed, at a density of 7,500 cells per well 24 hours before the assay conductance and incubated overnight in their normal growth medium. On the experiment day the medium was replaced with HBSS, HEPES, and the tested compound/vehicle (0.2% DMSO). Dye solution (prepared according to the manufacturer) was added to the wells and plates were incubated for 1.5 hour light-protected in room temperature. The Tecan Spark plate-reader injectors were primed with Tl+(1 mM Tl2SO4) or Tl++K+(1 mM Tl2SO4; 10 mM K2SO4) for channel activation and data correction. […]. To calculate IC50 values, the data was fitted to sigmoidal regression using Prism GraphPad.

[3] = 1-octanol/phosphate buffer, read-out: LogD

Structure (SMILES) | logD [1, 3] | fraction unbound at 4 h, 2 µM [2] | IC50 (rat DRG neurons) | IC50 (hERG; Table 1, read-out: hERG IC50) [nM] | hERG IC50 (inhibition in parentheses) (hERG; Table 1) [%] | IC50 (hERG; hERG IC50 HCS) [nM] | also measured
O=C(Cc1cc(-n2cc(C(F)(F)F)c3cc(Cl)cc(Cl)c32)ncn1)NCCO [Compound 843] | 3.75 | – | – | – | – | – | –
O=C(Cc1cncc(-n2cc(Cl)c3cc(Cl)cc(Cl)c32)c1)N[C@@H]1COC[C@H]1O [Compound 661] | 3.55 | 0.0029 | 0.003 nM and 0.002 nM and < 0.003 nM | > 16600 | 0 | 18700 | IC50 (rat DRG neurons; listed as BS661): 0.002 nM; hERG activity (hERG): no measurable activity at any concentration tested
Cc1cn(-c2ccc(F)c(CC(=O)NCC(C)(C)O)c2)c2c(Cl)cc(Cl)cc12 [Compound 421] | 5.45 | 0.0004 | 25 nM | – | – | > 2500 | IC50 (rat DRG neurons; listed as BS421): 25 nM
O=C(Cc1cc(-n2cc(Cl)c3cc(Cl)cc(Cl)c32)ccc1F)NCCO [Compound 627] | – | 0.0004 | 0.1 nM | > 2500 | 0 | > 2650 | Inhibition of capsaicin-evoked action potential firing (rat DRG neurons; 0.1 nM): about 50%; Inhibition of capsaicin-evoked action potential firing (rat DRG neurons; 1 nM): completely blocked
O=C(Cc1nccc(-n2cc(Cl)c3cc(Cl)cc(Cl)c32)n1)NC1COCC1O (stereo not drawn) [Compound 760] | 3.28 | – | 0.23 nM | – | – | – | Inhibition of capsaicin-evoked action potential firing (rat DRG neurons; 1 nM): about 90%; hERG activity (hERG): lacks any effect on hERG and Kv7.3/4/5 activity below 10 μM; IC50 (hERG; human, cho/herg cells, Thallium ions (Tl+) fluorescence, read-out: hERG EC50): 33400 nM
O=C(Cc1ccnc(-n2cc(Cl)c3cc(Cl)cc(Cl)c32)n1)N[C@@H]1COC[C@H]1O [Compound 820] | 3.82 | – | – | – | – | – | –
COC[C@@H](CO)NC(=O)Cc1cc(Sc2c(Cl)cc(F)cc2C(C)C)ccc1F [Compound 415] | 4.25 | – | – | > 23000 | 0 | – | –

Further lines, with some results ahead:

logD [1, 3] | fraction unbound at 4 h, 2 µM [2] | IC50 (rat DRG neurons) | Structure (SMILES) | IC50 (hERG; Table 1, read-out: hERG IC50) [nM] | hERG IC50 (inhibition in parentheses) (hERG; Table 1) [%] | IC50 (hERG; hERG IC50 HCS) [nM] | also measured
– | – | < 100 nM | Cc1cn(-c2ccc(F)c(CC(=O)NCC(C)(C)O)c2)c2c(Cl)cc(Cl)cc12 [Compound 421-6] | > 2500 | 0 | – | Inhibition of capsaicin induced AP response (rat DRG neurons; 100 nM): 63.4±17.8%; Inhibition of capsaicin induced AP response (rat DRG neurons; 500 nM): 86.5±8.4%; Inhibition of AP response to capsaicin (rat DRG neurons; 2 μM): 97.9±2.1%; logD [1]: 5.47
4.08 | – | – | CC(C)c1cc(Cl)cc(Cl)c1C(=O)c1ccc(F)c(CC(=O)NCC(C)(C)O)c1 [Compound 417-4] | > 35000 | 0 | – | –
4.66 | – | 500 nM | CC(C)c1cc(Cl)cc(Cl)c1Nc1ccc(F)c(CC(=O)NCC(C)(C)O)c1 [NH91, reference compound] | – | – | – | –
